Entries after “also recorded” stand apart in the source; their conditions may differ.
Tests used:
Type in all cases: biochemical
[1] = tested on: P(40) particulate fraction of Methylosinus sp. (CRL-15, NRRL B-11,202); assay: Effect of inhibitors on propylene epoxidation and methane hydroxylation; conditions: inhibitor 10^-3 M; P(40) fraction
Experimental: (§1) The oxidation of methane and propylene by particulate [(P)40 and (P)80] fractions and soluble [S(80)] fraction was measured at 30° C. by estimating the production of methanol and propylene oxide, respectively. The reaction mixtures contained in […]: 150 mM potassium phosphate buffer, pH 7.0 containing 5 mM MgCl2 b, 0.6 ml; 10μ moles NADH, and cellular fraction.
Reaction mixtures were contained in 10 ml vials at 4° C. Vials were sealed with rubber caps. The gaseous phase in the vials was removed using vacuum and then was replaced with a gas mixture of methane or propylene and oxygen at a 1:1, v/v ratio. Oxidation of other gaseous n-alkanes and n-alkanes was examined as described above. For liquid substrates, 10 μl of substrate was used directly. Vials were then incubated at 30° C. on a rotary shaker at 200 RPM.
It has been reported that the oxidation of methane by cell suspensions of methane-utilizing bacteria was inhibited by various metal-binding or metal-chelating agents (Patel et al., J. Bacteriol. 126: 1017-1019 (1976)). […] (CRL-15, NRRL B-11,202) was examined.

[2] = tested on: purified secondary alcohol dehydrogenase (SADH) from Pseudomonas sp. ATCC 21439; assay: Effect of metal-chelating agents and thio reagents on purified SADH; conditions: final concentration of 1 mM; measured spectrofluorometrically
Experimental: Secondary alcohol dehydrogenase (SADH) from an obligate methanol utilizer, Pseudomonas sp. ATCC 21439 was purified as follows. […] 0.05 M sodium phosphate buffer, pH 7.0 with 0.5 mM dithiothretol (buffer A) and were disrupted sonically (5×1 min.). The crude extract was separated by centrifugation. The crude extract was heat-treated at 50° C. in a water bath for 10 minutes. The resulting precipitate was removed by centrifugation. To the supernatant solution, 25 ml of protamine sulfate solution (2% solution in 0.1 M Tris base) was added dropwise with continuous stirring. After standing for 30 minutes, the extract was centrifuged. The supernatant solution was fractionated with solid ammonium sulfate. […] This DEAE-cellulose eluate was concentrated by ammonium sulfate fractionation. Material precipitating between 30 and 50% ammonium sulfate saturation was collected by centrifugation and dialyzed overnight against A. This fraction was further washed and filtered through an Amicon unit with XM 50 membrane. The concentrated fraction (6 ml) inside the Amicon unit was applied to an Affi-Gel Blue column (0.8 cm×18 cm) which had been equilibrated with buffer A for affinity chromatography. The column was washed overnight with buffer A (0.18 ml./min.) and then was eluted with buffer A containing 5 mM NAD. Each 1 ml. fraction was collected.
The purified secondary alcohol dehydrogenase enzyme (SADH) may be used directly for converting C3 -C6 secondary alcohols to the corresponding methyl ketones by the procedures described above; however, a source of NAD^+ must be added to the reaction medium. One can determine the NAD-linked secondary alcohol dehydrogenase activity with a fluorescence spectrophotometer (Perkin Elmer, Model MPF 44A) by following the formation of reduced NAD (Ex 340 nm, Em 460 nm). The assay system (3 ml.) will typically contain: sodium phosphate buffer pH 7.0, 150 μmol; NAD 1.0 μmol; a given amount of enzyme preparation; and 20 μmol secondary alcohol. The reaction is started by the addition of secondary alcohol. One unit of SADH enzyme activity represents the reduction of one nmole NAD per minute.
The effect of metal-chelating agents and chioreagents on the activity of the purified SADH enzyme were studied. […] The possibility of ethanol or n-propanol as an inhibitor was studied.

[3] = tested on: purified secondary alcohol dehydrogenase from Pichia sp. NRRL Y-11,328; assay: Inhibitors of purified yeast SADH; conditions: primary alcohols tested at 10^-3 M
Experimental: Large scale cultures of Pichia sp. NRRL Y-11,328 were grown with aeration at 30° C. in a 14-liter New Brunswick f fermentor in a mineral salt medium containing methanol (0.4%, v/v) as the sole carbon source. The cells (200 g., wet weight) were suspended in […] sodium phosphate buffer, pH 7.0, containing 1 mM dithiothreitol (buffer A), and crude extracts were prepared as described previously. To the crude extracts, 18 ml. of protamine sulfate solution [2% solution in 0.1 M tris (hydroxymethyl) aminomethane (tris) base] was added dropwise with continuous stirring. After standing for 30 min., the extracts were centrifuged at 20,000×g. for 60 min. The supernatant solution was fractionated with solid ammonium sulfate. Extracts were brought to 50% of saturation with respect to ammonium sulfate by addition of 313 g. of the salt per liter of extract. Precipitated proteins was removed by centrifugation, and 137 g. of ammonium sulfate was added per liter of the supernatant liquid to bring it to 70% of saturation. Material precipitating between 50 and 70% of saturation was collected by centrifugation and dissolved in buffer A. This preparation was dialyzed overnight against buffer A, and the dialyzed material was applied to a DEAE-cellulose column (5×40 cm) that had been equilibrated with buffer A. The sample was washed with 200 ml. of buffer A and eluted with 2 liters of buffer A that contained NaCl in a linear gradient running from a concentration of 0 to 0.5 M. Fractions of 15 ml. were collected. Fractions containing secondary alcohol dehydrogenase activity were pooled and were termed DEAE-cellulose eluate. The DEAE-cellulose eluate was concentrated by ammonium sulfate fractionation.
Secondary alcohol dehydrogenase activity was measured spectrophotometrically at 340 nm with a NAD^+ as an electron acceptor. The reaction mixture, in a total 3.0 ml., contained 50 mM phosphate buffer, pH 8,0, 5 μ moles NAD^+, crude extracts, and substrate. The reactions were started by addition of 100 µl of 0.1 M substrate and the rate of NAD^+ reduction was measured. Protein concentration was determined by the method of Lowry et al.
Various primary alcohols not oxidized by secondary alcohol dehydrogenase were tested as potential inhibitors of enzyme activity.

[4] = tested on: cell-free particulate fractions derived from the methylotrophic microorganisms; assay: Inhibition of conversion of C3 -C6 n-alkanes to sec. alcohols; conditions: oxygen and NADH present
From the text: The conditions for preparing the cell suspensions or the cell-free particulate fractions from methane-grown methylotroph microorganisms is the same as described above.

[5] = tested on: P(40) particulate fraction of Methylosinus sp. (CRL-15, NRRL B-11,202); assay: Effect of metals on propylene epoxidation and methane hydroxylation; conditions: metal 10^-3 M, P(40) fraction; for Methane-Oxidizing Activity: control 4.0; for Propylene-Oxidizing Activity: control […]
Experimental: as §1
Reaction mixtures were contained in 10 ml vials at 4° C. Vials were sealed with rubber caps. The gaseous phase in the vials was removed using vacuum and then was replaced with a gas mixture of methane or propylene and oxygen at a 1:1, v/v ratio. Oxidation of other gaseous n-alkanes and n-alkanes was examined as described above. For liquid substrates, 10 μl of substrate was used directly.
Since the methane mono-oxygenase from methane-utlizing bacteria is a copper or iron-containing protein (Tonge et al., J. Biochem., 161: 333-344 (1977)), we have examined the effect of copper and iron salts on the oxidation of methane and propylene by the P(40) particulate fraction of Methylosinus sp. (CRL-15, NRRL B-11,202). The rate of hydroxylation of methane to methanol and epoxidation of propylene to propylene oxide was increased twofold in the presence of added copper salts (Table XII).

[6] = tested on: purified secondary alcohol dehydrogenase from Pichia sp. NRRL Y-11,328; assay: Substrate specificity, electron acceptor and stoichiometry of purified yeast SADH
[7] = tested on: cell-free soluble extracts of C1 -utilizing microbes (secondary alcohol dehydrogenase); assay: Cofactor requirement of cell-free SADH systems
Experimental: Catalytic activity was also assayed by fluorescence spectrophotometry.

## c1cnc2c(c1)ccc1cccnc12 [1,10-Phenanthroline]
[1]
  % Inhibition, Methane-Hydroxylating Activity: 90%
  % Inhibition, Propylene-Epoxidizing Activity: 93%
[2]
  % inhibition of SADH activity: 95%
[3]
  inhibition of secondary alcohol dehydrogenase activity: strongly inhibited
[4]
  inhibition of conversion of n-alkanes to sec. alcohols: inhibited

## Oc1cccc2cccnc12 [8-Hydroxyquinoline]
[1]
  % Inhibition, Methane-Hydroxylating Activity: 80%
  % Inhibition, Propylene-Epoxidizing Activity: 75%
[4]
  inhibition of conversion of n-alkanes to sec. alcohols: inhibited

## O=S(=O)([O-])[O-].[Cu+2] [Cupric Sulfate]
[5]
  Methane-Oxidizing Activity: 7.1 μmoles/hr/mg protein
  Propylene-Oxidizing Activity: 9.0 μmoles/hr/mg protein
[3]
  inhibition of secondary alcohol dehydrogenase activity: inhibited

## [Cl][Cu] [Cuprous Chloride]
[5]
  Methane-Oxidizing Activity: 7.2 μmoles/hr/mg protein
  Propylene-Oxidizing Activity: 9.2 μmoles/hr/mg protein

## Cc1cc2nc3c(=O)[nH]c(=O)nc-3n(C[C@H](O)[C@H](O)[C@H](O)COP(=O)(O)OP(=O)(O)OC[C@H]3O[C@@H](n4cnc5c(N)ncnc54)[C@H](O)[C@@H]3O)c2cc1C [FAD, flavin adenine dinucleotide]
[6]
  electron acceptor / carrier: could not act as electron carrier
[7]
  effectiveness as cofactor for oxidation of secondary alcohols: not effective

## [Cl][Fe]([Cl])[Cl] [Ferric Chloride]
[5]
  Methane-Oxidizing Activity: 4.8 μmoles/hr/mg protein
  Propylene-Oxidizing Activity: 5.8 μmoles/hr/mg protein

## c1c[nH]cn1 [Imidazole]
[3]
  inhibition of secondary alcohol dehydrogenase activity: strongly inhibited

## NC(=O)C1=CN([C@@H]2O[C@H](COP(=O)(O)OP(=O)(O)OC[C@H]3O[C@@H](n4cnc5c(N)ncnc54)[C@H](OP(=O)(O)O)[C@@H]3O)[C@@H](O)[C@H]2O)C=CC1 [NAD(P)H]
[7]
  effectiveness as cofactor for oxidation of secondary alcohols: not effective

## NC(=O)c1ccc[n+]([C@@H]2O[C@H](COP(=O)([O-])OP(=O)(O)OC[C@H]3O[C@@H](n4cnc5c(N)ncnc54)[C@H](O)[C@@H]3O)[C@@H](O)[C@H]2O)c1 [NAD, Nicotinamide adenine dinucleotide]
[6]
  electron acceptor / carrier: required
[7]
  effectiveness as cofactor for oxidation of secondary alcohols: requirement; also recorded: required

## NC(=O)c1ccc[n+]([C@@H]2O[C@H](COP(=O)([O-])OP(=O)(O)OC[C@H]3O[C@@H](n4cnc5c(N)ncnc54)[C@H](OP(=O)(O)O)[C@@H]3O)[C@@H](O)[C@H]2O)c1 [NADP]
[6]
  electron acceptor / carrier: could not act as electron carrier
[7]
  effectiveness as cofactor for oxidation of secondary alcohols: not effective

## NNC(N)=S [Thiosemicarbazide]
[1]
  % Inhibition, Methane-Hydroxylating Activity: 100%
  % Inhibition, Propylene-Epoxidizing Activity: 97%
[4]
  inhibition of conversion of n-alkanes to sec. alcohols: inhibited

## NC(N)=S [Thiourea]
[1]
  % Inhibition, Methane-Hydroxylating Activity: 98%
  % Inhibition, Propylene-Epoxidizing Activity: 98%
[2]
  % inhibition of SADH activity: 0%
[4]
  inhibition of conversion of n-alkanes to sec. alcohols: inhibited

## O=C1C(Cl)=CC(=Nc2ccc(O)cc2)C=C1Cl [dichlorophenol indophenol]
[6]
  electron acceptor / carrier: could not act as electron carrier
[7]
  effectiveness as cofactor for oxidation of secondary alcohols: not effective

## N[C@@H](CCC(=O)N[C@@H](CS)C(=O)NCC(=O)O)C(=O)O [glutathione]
[3]
  inhibition of secondary alcohol dehydrogenase activity: strongly inhibited
[7]
  effectiveness as cofactor for oxidation of secondary alcohols: not effective

## N#C[S][Hg][S]C#N [mercuric thiocyanate]
[3]
  inhibition of secondary alcohol dehydrogenase activity: inhibited

## O=C(O)c1cc[c]([Hg+])cc1.[OH-] [p-hydroxymercuribenzoate]
[2]
  % inhibition of SADH activity: 100%
[3]
  inhibition of secondary alcohol dehydrogenase activity: strongly inhibited

## C[n+]1c2ccccc2nc2ccccc21 [phenazine methosulfate]
[6]
  electron acceptor / carrier: could not act as electron carrier
[7]
  effectiveness as cofactor for oxidation of secondary alcohols: not effective

## O=[N+]([O-])[O-].[Ag+] [silver nitrate]
[3]
  inhibition of secondary alcohol dehydrogenase activity: inhibited

## c1ccc(-c2ccccn2)nc1 [α,α-Bipyridyl]
[1]
  % Inhibition, Methane-Hydroxylating Activity: 99%
  % Inhibition, Propylene-Epoxidizing Activity: 98%
[2]
  % inhibition of SADH activity: 70%
[4]
  inhibition of conversion of n-alkanes to sec. alcohols: inhibited

## Ferrous Sulfate
[5]
  Methane-Oxidizing Activity: 4.8 μmoles/hr/mg protein
  Propylene-Oxidizing Activity: 5.9 μmoles/hr/mg protein

Source: patent US4347319A, “Microbiological epoxidation process” (priority 1980, dated 1982)
